# Experimental data published in patent US8633134B2, “Substituted amidine compounds for combating animal pests” (priority 2008, dated 2014).
# What was measured:
# Type in all cases: in vivo
# [1] = tested on: Diamond Back Moth (Plutella xylostella); experiment: Diamond back moth leaf dip test; details: foliar, 120 h
# Description: The active compound is dissolved at the desired concentration in a mixture of 1:1 (vol:vol) distilled water:acteon. The test solution is prepared at the day of use and in general at concentrations of […].
# Leaves of Chinese cabbage were dipped in test solution and air-dried. Treated leaves were placed in petri dished lined with moist filter paper. Mortality was recorded 24, 72, and 120 hours after treatment.
# [2] = tested on: Mediterranean Fruitfly (Ceratitis capitata); experiment: Mediterranean fruitfly microtiter plate diet test; details: 120 h
# Description: For evaluating control of Mediterranean fruitfly (Ceratitis capitata) the test unit consisted of microtiter plates containing an insect diet and 50-80 C. capitata eggs. The compounds were formulated using a solution containing 75% v/v water and 25% v/v DMSO. Different concentrations of formulated compounds were sprayed onto the insect diet at 5 μl, using a custom built micro atomizer, at two replications.
# After application, microtiter plates were incubated at about 28±1° C. and about 80±5% relative humidity for 5 days. Egg and larval mortality was then visually assessed.
# [3] = tested on: Orchid Thrips (Dichromothrips corbetti); experiment: Orchid thrips floral-immersion test; details: 96 h
# Description: Dichromothrips corbetti adults used for bioassay are obtained from a colony maintained continuously under laboratory conditions. For testing purposes, the test compound is diluted to a concentration of 300 ppm (wt compound: vol diluent) in a 1:1 mixture of acetone:water (vol:vol), plus 0.01% vol/vol Kinetic® surfactant.
# Thrips potency of each compound is evaluated by using a floral-immersion technique. Plastic petri dishes are used as test arenas. All petals of individual, intact orchid flowers are dipped into treatment solution and allowed to dry. Treated flowers are placed into individual petri dishes along with 10-15 adult thrips. The petri dishes are then covered with lids. All test arenas are held under continuous light and a temperature of about 28° C. for duration of the assay. After 4 days, the numbers of live thrips are counted on each flower, and along inner walls of each petri dish. The level of thrips mortality is extrapolated from pre-treatment thrips numbers.
# [4] = tested on: Silverleaf Whitefly (Bemisia argentifolii); experiment: Silverleaf whitefly cotton plant spray test; details: 72 h, 3 days after treatment, in comparison with untreated controls
# Excerpt: (§1) The active compounds were formulated in cyclohexanone as a 10,000 ppm solution supplied in tubes. The tubes were inserted into an automated electrostatic sprayer equipped with an atomizing nozzle and they served as stock solutions for which lower dilutions were made in 50% acetone:50% water (v/v). A nonionic surfactant (Kinetic®) was included in the solution at a volume of 0.01% (v/v).
# Cotton plants at the cotyledon stage (one plant per pot) were sprayed by an automated electrostatic plant sprayer equipped with an atomizing spray nozzle. The plants were dried in the sprayer fume hood and then removed from the sprayer. Each pot was placed into a plastic cup and about 10 to 12 whitefly adults (approximately 3-5 days old) were introduced. The insects were collected using an aspirator and a nontoxic Tygon® tubing connected to a barrier pipette tip. The tip, containing the collected insects, was then gently inserted into the soil containing the treated plant, allowing insects to crawl out of the tip to reach the foliage for feeding. Cups were covered with a reusable screened lid. Test plants were maintained in a growth room at about 25° C. and about 20-40% relative humidity for 3 days, avoiding direct exposure to fluorescent light (24 hour photoperiod) to prevent trapping of heat inside the cup. Mortality was assessed 3 days after treatment, compared to untreated control plants.
# [5] = tested on: Southern Armyworm (Spodoptera eridania); experiment: Southern armyworm lima bean foliar spray test; details: 96 h
# Description: as §1
# (§2) Lima bean plants (variety Sieva) were grown 2 plants to a pot and selected for treatment at the 1st true leaf stage. Test solutions were sprayed onto the foliage by an automated electrostatic plant sprayer equipped with an atomizing spray nozzle. The plants were dried in the sprayer fume hood and then removed from the sprayer. Each pot was placed into perforated plastic bags with a zip closure. About 10 to 11 armyworm larvae were placed into the bag and the bags zipped closed. Test plants were maintained in a growth room at about 25° C. and about 20-40% relative humidity for 4 days, avoiding direct exposure to fluorescent light (24 hour photoperiod) to prevent trapping of heat inside the bags. Mortality and reduced feeding were assessed 4 days after treatment, compared to untreated control plants.
# [6] = tested on: Tobacco Budworm (Heliothis virescens); experiment: Tobacco budworm cotton plant foliar spray test; details: 96 h
# Description: as §1
# as §2, with “Cotton” for “Lima bean”, “plants” for “plants (variety Sieva)”, “cotyledon” for “1st true leaf”, “budworm” for “armyworm”
# [7] = tested on: Boll Weevil (Anthonomus grandis); experiment: Boll weevil microtiter plate diet test; details: 120 h
# Description: For evaluating control of boll weevil (Anthonomus grandis) the test unit consisted of 24-well-microtiter plates containing an insect diet and 20-30 A. grandis eggs.
# The compounds were formulated using a solution containing 75% v/v water and 25% v/v DMSO. Different concentrations of formulated compounds were sprayed onto the insect diet at 20 μl, using a custom built micro atomizer, at two replications. After application, microtiter plates were incubated at about 23±1° C. and about 50±5% relative humidity for 5 days. Egg and larval mortality was then visually assessed.
# [8] = tested on: House Fly Adults (Musca domestica); experiment: House fly adults glass vial contact assay; details: 48 h after treatment, in comparison with untreated controls
# Description: If not otherwise specified, the tests were conducted as glass vial contact assays. Glass vials (20 ml scintillation vials) were used. Treatment solutions were mixed with technical grade chemicals diluted in acetone. Treatment solutions needed for the assays included generally 1 and 10 ppm (0.01 and 0.1 μg/cm^2, respectively), but optionally also 100 and/or 1000 ppm for first tier vials. As commercial standard, alphacypermethrin, was run at 1 ppm. As solvent control, acetone was used for the assay. Treatment solution was pipetted into the bottom of each vial. Each vial was turned on its side and placed onto a commercial grade hot dog roller without applying heat. The uncapped vials were allowed to roll to allow for the acetone treatment to vent off. After drying, the vials were placed into the compartmented vial shipping boxes. The workstation was prepared by chilling the table and plastic Petri dishes with the inside wall coated with Fluon. A weigh boat of 10% sugar water saturated cotton dental pellets was also prepared. The animal pests were collected into a tube with a rechargeable insect vacuum. The tube of animal pests was placed in a laboratory refrigerator until the animal pests were incapacitated. The animal pests were emptied into chilled Petri dish. A small cotton dental pellet was soaked in water or in 10 wt % sugar water, whereas the excess solution was gently squeezed out. […]
# [9] = tested on: yellowfever mosquito larvae (Aedes aegypti); experiment: Larval mosquito water treatment assay; details: 120 h, 5 DAT (days after treatment), first tier test, in comparison with untreated controls
# Description: The assay was conducted in 6-well polystyrene plates using one plate per treatment rate. Stock solutions were prepared at 100 and 1000 ppm. Screen rates were at 1 and 10 ppm. Distilled water was added to each well, control wells were treated with acetone. Temephos (Abate technical) was used as the standard at 0.1 ppm. Ten late thirdinstar yellowfever mosquito larvae (Aedes aegypti) in water were added to each well. One drop of liver powder solution (6 g in 100 ml distilled water) was added to each well as a food source daily. Plates were maintained at 22-25° C. and 25-50% RH (relative humidity) and observed daily for dead larvae and pupae at 1, 2, 3, and 5 days after treatment. Dead larvae and all pupae were removed daily. Mortality was defined as an insect incapable of coordinated movement when agitated.
# [10] = tested on: Western Flower Thrips (Frankliniella occidentalis); experiment: Western flower thrips glass vial / leaf disc test; details: 300 ppm; 2 DAT; in comparison with untreated controls
# Description: Serial dilutions of each technical grade AI were made in pure acetone. 0.5 ml of the treatment solution was deposited into the bottom of a glass vial (scintillation vial). The cap was screwed back onto the vial and inverted for about five seconds. The cap was subsequently removed and the vial laid on its side and rolled constantly, on a hot dog roller, until all the acetone had flashed off and the inner surface of the vial was dry. Cotton leave discs were also dipped simultaneously into the treatment solutions and allowed to dry. After the vials were dried, the leave discs are placed into the vials to serve as a food/water source for the thrips. Each treatment was replicated 5-fold.
# Western flower thrips were aspirated into the vials, approximately 5 larvae or adults/vial. Following treatment application the vials were held in a holding room under fluorescent light and constant 26° C. Thrips mortality was assessed at 2 DAT (days after treatment), counting all thrips both dead and alive.
# [11] = tested on: Cotton Aphid (Aphis gossypii); experiment: Cotton aphid foliar spray test; details: 120 h, after 5 days, in comparison with untreated controls
# Excerpt: as §1
# Cotton plants at the cotyledon stage were infested with aphids prior to treatment by placing a heavily infested leaf from the main aphid colony on top of each cotyledon. Aphids were allowed to transfer overnight to accomplish an infestation of 80-100 aphids per plant and the host leaf was removed. The infested plants were then sprayed by an automated electrostatic plant sprayer equipped with an atomizing spray nozzle. The plants were dried in the sprayer fume hood, removed from the sprayer, and then maintained in a growth room under fluorescent lighting in a 24-hr photoperiod at 25° C. and 20-40% relative humidity. Aphid mortality on the treated plants, relative to mortality on untreated control plants, was determined after 5 days.
# [12] = tested on: Vetch Aphid (Megoura viciae); experiment: Vetch aphid leaf disk microtiter plate test; details: foliar, 120 h
# Description: For evaluating control of vetch aphid (Megoura viciae) through contact or systemic means the test unit consisted of 24-well-microtiter plates containing broad bean leaf disks.
# The compounds were formulated using a solution containing 75% v/v water and 25% v/v DMSO. Different concentrations of formulated compounds were sprayed onto the leaf disks at 2.5 μl, using a custom built micro atomizer, at two replications. After application, the leaf disks were air-dried and 5-8 adult aphids placed on the leaf disks inside the microtiter plate wells. The aphids were then allowed to suck on the treated leaf disks and incubated at about 23±1° C. and about 50±5% relative humidity for 5 days. Aphid mortality and fecundity was then visually assessed.
SMILES,mortality at 300 ppm [1] [%],mortality at 2500 ppm [2] [%],mortality at 300 ppm [3] [%],mortality at 300 ppm [4] [%],mortality at 300 ppm [5] [%],mortality at 2500 ppm [6] [%],mortality at 2500 ppm [7] [%],mortality at 10 ppm [8] [%],mortality at 1 ppm [9] [%],mortality [10],mortality at 300 ppm [11] [%],mortality at 2500 ppm [12] [%]
"CON=C(c1ccc(C2=NOC(c3cc(Cl)cc(Cl)c3)(C(F)(F)F)C2)cc1C)N(C)C (centres unmarked) [Compound 1-3, 4-[5-(3,5-Dichloro-phenyl)-5-trifluoromethyl-4,5-dihydro-isoxazol-3-yl]-N′-methoxy-2,N,N-trimethyl-benzamidine]",≥ 75,≥ 75,≥ 75,≥ 75,≥ 75,≥ 75,≥ 75,≥ 75,≥ 75,–,–,–
Cc1cc(C2=NOC(c3cc(Cl)cc(Cl)c3)(C(F)(F)F)C2)ccc1C(=NO)N(C)C (centres unmarked) [Compound 1-2],–,–,–,–,–,–,–,–,–,at least 75%,–,–
"CN=C(NO)c1ccc(C2=NOC(c3cc(Cl)cc(Cl)c3)(C(F)(F)F)C2)cc1C (centres unmarked) [Compound 1-1, 4-[5-(3,5-Dichloro-phenyl)-5-trifluoromethyl-4,5-dihydro-isoxazol-3-yl]-N-hydroxy-2,N′-dimethyl-benzamidine]",≥ 75,≥ 75,≥ 75,≥ 75,≥ 75,≥ 75,≥ 75,–,≥ 75,–,≥ 75,≥ 75
